Experiments:
[1] = UV irradiation of suspensions in oils, HPLC analysis; assay type: physicochemical; settings: irradiated 4 hours; for Brexpiprazole (area) / Compound I (area) / Compound II (area): HPLC
Method: [table] Suspensions of brexpiprazole anhydrate or brexpiprazole dihydrate (about 10 mg per experiment) in different oils (about 105 mg per suspension) were prepared and irradiated for 4 hours.

[2] = UV exposure of solid brexpiprazole forms (Atlas Suntester XLS+); assay type: physicochemical; settings: 60 h Suntester
Source text: Brexpiprazole anhydrate and brexpiprazole dihydrate were respectively exposed to UV-radiation using an appropriate illumination device (Atlas Suntester XLS+) at 250 W/m^2 for 60 hrs, which corresponds to a total UV light intensity of […].

[3] = biological target: T1, serotonin 5-HT1A receptors (Homo sapiens, UniProt P08908); settings: cited from earlier work
T1 sequence (P08908 1-422): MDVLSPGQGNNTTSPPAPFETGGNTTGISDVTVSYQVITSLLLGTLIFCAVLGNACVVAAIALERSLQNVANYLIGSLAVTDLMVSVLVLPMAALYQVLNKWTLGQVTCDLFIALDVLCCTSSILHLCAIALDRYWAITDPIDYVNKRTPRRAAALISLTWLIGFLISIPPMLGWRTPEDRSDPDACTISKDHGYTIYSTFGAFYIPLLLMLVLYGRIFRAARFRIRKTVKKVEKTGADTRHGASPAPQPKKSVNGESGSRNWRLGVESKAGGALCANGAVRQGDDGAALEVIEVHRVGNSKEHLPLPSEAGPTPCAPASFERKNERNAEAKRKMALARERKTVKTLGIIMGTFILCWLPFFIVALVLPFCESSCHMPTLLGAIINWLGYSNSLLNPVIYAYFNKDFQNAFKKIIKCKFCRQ

dopamine D2 receptors = dopamine D2 receptors (Homo sapiens, UniProt P14416); settings: cited from earlier work
dopamine D2 receptors, sequence (P14416 whole entry): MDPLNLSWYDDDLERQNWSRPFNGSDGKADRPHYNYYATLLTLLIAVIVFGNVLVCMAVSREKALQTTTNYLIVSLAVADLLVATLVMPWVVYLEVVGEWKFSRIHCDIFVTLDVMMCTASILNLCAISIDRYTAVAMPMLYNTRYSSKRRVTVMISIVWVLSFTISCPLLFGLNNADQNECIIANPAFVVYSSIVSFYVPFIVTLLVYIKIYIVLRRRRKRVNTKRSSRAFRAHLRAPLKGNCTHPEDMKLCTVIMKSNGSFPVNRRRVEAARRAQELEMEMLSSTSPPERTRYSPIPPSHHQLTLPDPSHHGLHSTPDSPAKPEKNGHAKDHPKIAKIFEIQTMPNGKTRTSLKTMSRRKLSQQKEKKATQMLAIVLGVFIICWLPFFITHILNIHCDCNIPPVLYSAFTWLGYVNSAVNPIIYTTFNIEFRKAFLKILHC

[4] = biological target: serotonin 5-HT2A receptors (Homo sapiens, UniProt P28223); settings: cited from earlier work
serotonin 5-HT2A receptors, sequence (P28223 whole entry): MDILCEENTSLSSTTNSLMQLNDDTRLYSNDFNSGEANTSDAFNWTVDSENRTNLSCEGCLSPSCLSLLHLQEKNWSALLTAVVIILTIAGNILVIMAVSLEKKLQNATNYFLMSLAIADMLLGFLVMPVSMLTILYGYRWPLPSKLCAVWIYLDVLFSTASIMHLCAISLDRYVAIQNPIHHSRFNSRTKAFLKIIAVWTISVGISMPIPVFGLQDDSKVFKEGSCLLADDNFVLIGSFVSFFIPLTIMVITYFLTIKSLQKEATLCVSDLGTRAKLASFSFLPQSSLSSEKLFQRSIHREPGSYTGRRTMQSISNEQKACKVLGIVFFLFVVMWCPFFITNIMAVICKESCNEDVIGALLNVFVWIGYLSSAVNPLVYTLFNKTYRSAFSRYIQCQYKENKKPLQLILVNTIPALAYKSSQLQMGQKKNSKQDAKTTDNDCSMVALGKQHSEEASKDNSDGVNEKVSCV

[5] = UV lamp irradiation of brexpiprazole solution in toluene/methanol; assay type: physicochemical
Method: For the structure determination of the compound of formula II in Example 2 it was therefore necessary to produce larger quantities of that compound. […] The suspension was heated to 50° C. After stirring for 10 minutes, a clear solution was obtained. The solution was put into a transparent glass vial and irradiated for 18 h by a UV lamp (UVHQ 250 Z by “UV Technik Speziallampen”; radiation strength UVC/UVB/UVA: 38 W at 200 nm-280 nm; 20 W at 280 nm-315 nm; 18 W at 315 nm-400 nm). A light brown, clear solution was obtained. A mixture of brexpiprazole and compound II was obtained (19:81 area %).

[6] = suspension in castor oil, listed as Brx. Anhydrate
[7] = suspension in peanut oil, listed as Brx. Anhydrate
[8] = suspension in castor oil, listed as Brx. Dihydrate
[9] = suspension in peanut oil, listed as Brx. Dihydrate
[10] = toluene/methanol solution, UV lamp 18 h

Structure (SMILES): O=c1ccc2ccc(OCCCCN3CCN(c4cccc5sccc45)CC3)cc2[nH]1 [Brexpiprazole Anhydrate]
- Brexpiprazole (area) [1, 6]: 99.6%
- Compound I (area) [1, 6]: 0.0%
- Compound II (area) [1, 6]: 0.4%
- Brexpiprazole (area) ([1]; suspension in corn oil): 99.8%
- Compound I (area) ([1]; suspension in corn oil): 0.0%
- Compound II (area) ([1]; suspension in corn oil): 0.2%
- Brexpiprazole (area) [1, 7]: 99.8%
- Compound I (area) [1, 7]: 0.0%
- Compound II (area) [1, 7]: 0.2%

Structure (SMILES): O=c1ccc2ccc(OCCCCN3CCN(c4cccc5sccc45)CC3)cc2[nH]1 [Brexpiprazole Dihydrate]
- sensitivity to UV-induced dimerization vs anhydrate form [2]: significantly more sensitive
- sensitivity to UV-induced dimerization vs brexpiprazole anhydrate ([1]; oil suspensions): more sensitive
- Brexpiprazole (area) [1, 8]: 61.7%
- Compound I (area) [1, 8]: 35.1%
- Compound II (area) [1, 8]: 3.2%
- Brexpiprazole (area) ([1]; suspension in corn oil): 64.9%
- Compound I (area) ([1]; suspension in corn oil): 32.2%
- Compound II (area) ([1]; suspension in corn oil): 3.0%
- Brexpiprazole (area) [1, 9]: 64.3%
- Compound I (area) [1, 9]: 32.4%
- Compound II (area) [1, 9]: 3.3%

Structure (SMILES): O=c1ccc2ccc(OCCCCN3CCN(c4cccc5sccc45)CC3)cc2[nH]1 [Brexpiprazole, 7-[4-[4-(1-Benzothiophen-4-yl)piperazin-1-yl]butoxy]quinolin-2(1H)-one]
- activity at serotonin 5-HT1A receptors [3]: partial agonist activity
- activity at dopamine D2 receptors (dopamine D2 receptors): partial agonist activity
- activity at serotonin 5-HT2A receptors [4]: antagonist activity
- sensitivity to UV-radiation vs brexpiprazole anhydrate ([5]; brexpiprazole in solution): significantly more sensitive
- stability in control experiment ([5]; solution protected from UV light, vial wrapped in aluminum foil): remained stable
- brexpiprazole remaining in mixture [5, 10]: 19 area %
- compound II formed in mixture [5, 10]: 81 area %

Source: US20200093821A1, “Pharmaceutical Compositions of a Benzothiophene Compound” (Hexal AG, priority 2016, published 2020)
